Experimental findings from patent publication US10815210B2, “Benzocyclobutane derivatives useful as dual SGLT1 / SGLT2 modulators” (Janssen Pharmaceutica NV, priority 2016, dated 2020) are described below.

For one assay, the target named is T1, human SGLT2 (Homo sapiens, UniProt P31639).
T1 construct: expressed in transfected cells; host or cells: CHO-K1
T1 sequence (P31639 1-672): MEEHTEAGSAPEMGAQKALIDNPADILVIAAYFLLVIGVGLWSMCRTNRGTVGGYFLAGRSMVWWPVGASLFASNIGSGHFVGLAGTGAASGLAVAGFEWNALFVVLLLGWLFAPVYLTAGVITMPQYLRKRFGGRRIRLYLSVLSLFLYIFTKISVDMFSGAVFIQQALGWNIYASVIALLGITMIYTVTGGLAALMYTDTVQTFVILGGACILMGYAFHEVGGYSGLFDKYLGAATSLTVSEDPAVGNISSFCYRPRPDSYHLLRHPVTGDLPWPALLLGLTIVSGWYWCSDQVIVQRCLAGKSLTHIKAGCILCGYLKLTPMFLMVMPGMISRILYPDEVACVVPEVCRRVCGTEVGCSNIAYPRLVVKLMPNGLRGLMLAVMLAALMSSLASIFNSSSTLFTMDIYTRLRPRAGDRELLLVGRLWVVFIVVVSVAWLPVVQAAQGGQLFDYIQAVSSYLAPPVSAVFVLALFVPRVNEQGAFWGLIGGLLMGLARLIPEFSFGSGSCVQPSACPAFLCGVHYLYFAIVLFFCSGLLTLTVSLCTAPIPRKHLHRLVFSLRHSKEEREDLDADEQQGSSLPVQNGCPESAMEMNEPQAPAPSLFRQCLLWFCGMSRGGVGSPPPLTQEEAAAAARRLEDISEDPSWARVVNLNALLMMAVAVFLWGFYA
Description: SGLT2 assay: Na-dependent 14C-AMG uptake in CHO-K1 cells stably expressing human SGLT2. It is filed as cell-based. The note with it: for pIC50: 500 μM AMG, 2 hours at 37° C. The method, then: (§1) SGLT1 and SGLT2 were cloned in form of cDNA from human small intestine (Genbank M24847), and from human kidney (Genbank M95549), respectively. Subsequently, each full cDNA was subcloned into pcDNA with each construct's integrity verified through follow-on sequencing. To generate CHO-K1 cells that stably express human SGLT1 or human SGLT2, CHO-K1 cells were transfected using DMRIE-C reagent (Life Technologies, Gaithersburg, Md.). Transfected cells were then selected in the presence of 500 μg/ml of the Geneticin (G418 Cellgro Catalog No. 30234-CI)
(§2) Individual clones were then characterized using the following cell-based assay for sodium-dependent glucose transport:
(§3) Inhibition of SGLT1 and SGLT2 activity was assessed in CHO K1 cells stably expressing either human SGLT1 or SGLT2, using the SGLT specific glucose analog methyl-glucopyranoside (Sigma Catalog No. M-9376). Cells were plated (45,000 cells/well) in white wall 96-well plates (COSTAR, Cat#3903) for 24 hours in growth medium, then a final concentration of 10 mM Na-Butyrate (ALDRICH Cat#30341-0) was added. The cells were incubated for 24 hours. On the day of the assay, cells were rinsed and treated with test compounds (at concentrations of 0.001 μM to 10 μM) in assay buffer (50 mM HEPES, 20 mM Tris base, 5 mM KCl, 1 mM MgCl2, 1 mM CaCl2 and 137 mM NaCl, pH 7.4) for 10 minutes. Cells were then incubated with ^14C-a-methyl-d-glucopyranoside (AMG, Amersham Catalog No. CFB 76), using 0.07 μCi per well in 500 μM AMG final concentration. The cells were incubated for 2 hours at 37° C. with 5% CO2 and washed two times with ice-cold Phosphate Buffer Solution (Cellgro Catalog No. 21030-CV). The cells were then solubilized by adding 60 μl of MICROSCINT™20 and the Na-dependent ^14C-AMG uptake was quantified by measuring radioactivity. Plates were counted in a TopCount (Packard, Meriden, Conn.)

In the next assay the target is T2, human SGLT1 (Homo sapiens, UniProt P13866).
T2 construct: expressed in transfected cells; host or cells: CHO-K1
T2 sequence (P13866 1-664): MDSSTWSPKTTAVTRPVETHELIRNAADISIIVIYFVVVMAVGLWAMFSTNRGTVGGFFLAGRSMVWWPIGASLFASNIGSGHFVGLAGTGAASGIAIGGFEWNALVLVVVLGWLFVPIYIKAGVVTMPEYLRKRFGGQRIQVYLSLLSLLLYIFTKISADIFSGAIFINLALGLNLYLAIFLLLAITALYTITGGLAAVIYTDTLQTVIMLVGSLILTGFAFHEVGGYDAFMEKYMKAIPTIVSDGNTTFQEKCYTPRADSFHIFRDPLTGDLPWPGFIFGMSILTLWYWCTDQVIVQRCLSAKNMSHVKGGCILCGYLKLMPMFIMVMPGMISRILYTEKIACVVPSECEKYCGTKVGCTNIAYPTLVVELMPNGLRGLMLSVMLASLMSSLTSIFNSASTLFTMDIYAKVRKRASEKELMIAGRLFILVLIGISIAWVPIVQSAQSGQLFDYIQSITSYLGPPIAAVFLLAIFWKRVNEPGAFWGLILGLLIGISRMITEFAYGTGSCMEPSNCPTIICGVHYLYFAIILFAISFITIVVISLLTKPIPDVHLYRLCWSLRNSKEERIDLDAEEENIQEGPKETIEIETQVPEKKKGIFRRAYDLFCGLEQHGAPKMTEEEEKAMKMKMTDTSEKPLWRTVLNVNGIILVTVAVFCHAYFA
Description: SGLT1 assay: Na-dependent 14C-AMG uptake in CHO-K1 cells stably expressing human SGLT1. It is filed as cell-based. The settings on record: for pIC50: 500 μM AMG, 2 hours at 37° C. The method, then: as §1, §2, §3

As usually defined, the inhibition is the drop in the measured response relative to a control, in per cent. A lower inhibition goes with a response near the control. By pIC50 is commonly meant −log10 of the IC50, conventionally taken in molar units. Lower therefore signals a large IC50.

pIC50: −log10 of the molar value.

At human SGLT2, `CCc1cc(OC(F)(F)F)c([C@@H]2O[C@H](CO)[C@@H](O)[C@H](O)[C@H]2O)cc1Cc1ccc2c(c1)CC2` [Compound 35, (2S,3R,4R,5S,6R)-2-(5-((1,2-dihydrocyclobutabenzen-4-yl)methyl)-4-ethyl-2-(trifluoromethoxy)phenyl)-6-(hydroxymethyl)-tetrahydro-2H-pyran-3,4,5-triol] showed an inhibition at 0.03 µM of 45%. The same molecule returned an inhibition at 0.3 µM against human SGLT1 of 29%.
With `COc1cc(Cl)c(Cc2ccc3c(c2)CC3)cc1[C@@H]1O[C@H](CO)[C@@H](O)[C@H](O)[C@H]1O` [Compound 9], the negative-log IC50 (pIC50) against human SGLT2 is 9.00; against human SGLT1 it was 7.28.
The like results for `Cc1cc(F)c([C@@H]2O[C@H](CO)[C@@H](O)[C@H](O)[C@H]2O)cc1Cc1ccc2c(c1)CC2` [Compound 29, (2S,3R,4R,5S,6R)-2-(5-[bicyclo[4.2.0]octa-1,3,5-trien-3-ylmethyl]-2-fluoro-4-methylphenyl)-6-(hydroxymethyl)oxane-3,4,5-triol] were, in that order, 8.52 and 7.04.
For `COc1cc(O)c([C@@H]2O[C@H](CO)[C@@H](F)[C@H](O)[C@H]2O)cc1Cc1ccc2c(c1)CC2` [Compound 135], the pIC50 at human SGLT2 and at human SGLT1 was 8.52 throughout.
At human SGLT2, `COc1cc(OC(F)F)c([C@@H]2O[C@H](CO)[C@@H](O)[C@H](O)[C@H]2O)cc1Cc1ccc2c(c1)CC2` [Compound 38, (2S,3R,4R,5S,6R)-2-(2-(difluoromethoxy)-5-((1,2-dihydrocyclobutabenzen-4-yl)methyl)-4-methoxyphenyl)-6-(hydroxymethyl)-tetrahydro-2H-pyran-3,4,5-triol] displayed an inhibition at 0.03 µM of 78%. Further, the inhibition at 0.3 µM against human SGLT1 stood at 20%.
`[2H]C([2H])([2H])Oc1cc(OC)c(Cc2ccc3c(c2)CC3)cc1[C@@H]1O[C@H](CO)[C@@H](O)[C@H](O)[C@H]1O` [Compound 112]: the figures for the pIC50 on human SGLT2 and against human SGLT1 were 8.70 and 7.62, respectively.
Take `COc1cc(F)c(Cc2ccc3c(c2)CC3)cc1[C@@H]1O[C@H](CO)[C@@H](O)[C@H](O)[C@H]1O` [Compound 20, (2S,3R,4R,5S,6R)-2-(5-((1,2-dihydrocyclobutabenzen-4-yl)methyl)-4-fluoro-2-methoxyphenyl)-6-(hydroxymethyl)-tetrahydro-2H-pyran-3,4,5-triol]: the inhibition at 0.03 µM against human SGLT2 stood at 77%. Besides, the inhibition at 0.3 µM against human SGLT1 was determined as 24%.
The corresponding values for `OC[C@H]1O[C@@H](c2ccc(Cl)c(Cc3ccc4c(c3)CC4)c2)[C@H](O)[C@@H](O)C1(F)F` [Compound 106] are 26% and 41%.
Consider `Cc1ccc([C@@H]2O[C@H](CO)[C@@H](F)[C@H](O)[C@H]2O)cc1Cc1ccc2c(c1)CC2` [Compound 126], for which the pIC50 against human SGLT2 is 8.40; on human SGLT1, 7.28.
With `[2H]C1([2H])c2ccc(Cc3cc([C@@H]4O[C@H](CO)[C@@H](O)[C@H](O)[C@H]4O)ccc3Cl)cc2C1([2H])[2H]` [Compound 123], the values for the pIC50 against human SGLT2 and on human SGLT1 were 9.00 and 7.10, respectively.
As for `OC[C@H]1O[C@@H](c2ccc(F)c(Cc3ccc4c(c3)CC4)c2)[C@H](O)[C@@H](O)[C@@H]1O` [Compound 101], the inhibition at 0.03 µM against human SGLT2 was 70%. The same molecule displayed an inhibition at 0.3 µM on human SGLT1 of 22%.
In the case of `COc1cc(OC)c([C@@H]2O[C@H](CO)[C@@H](O)[C@H](O)[C@H]2O)cc1Cc1ccc2c(c1)CC2` [Compound 11, (2S,3R,4R,5S,6R)-2-(5-((1,2-dihydrocyclobutabenzen-4-yl)methyl)-2,4-dimethoxyphenyl)-6-(hydroxymethyl)-tetrahydro-2H-pyran-3,4,5-triol], the pIC50 was 9.00 against human SGLT2 and 7.24 on human SGLT1.
The like results for `OC[C@H]1O[C@@H](c2ccc(Cl)c(Cc3ccc4c(c3)CC4)c2)[C@H](O)[C@@H](O)[C@@H]1O` [Compound 2, (2S,3R,4R,5S,6R)-2-(4-chloro-3-((1,2-dihydrocyclobutabenzen-4-yl)methyl)phenyl)-6-(hydroxymethyl)-tetrahydro-2H-pyran-3,4,5-triol] were, in that order, 9.00 and 7.35.
